Source: US9757375B2, “Compounds that inhibit human DNA ligases and methods of treating cancer” (University of Maryland, Baltimore, priority 2007, dated 2017)
Like-named read-outs stand apart in the source and are kept apart here.

Tests used:
HCT116 and MCF10A cells [1] = test: Cell proliferation screen, result stated for one or both cell lines; assay type: cell-based; settings: Homo sapiens, read-out: IC50 of inhibition of proliferation
MCF10A cells [2] = test: Screen for potentiation of DNA damaging agents (MMS, camptothecin, cis-platinum, 3 aminobenzamide, ionizing radiation); assay type: cell-based, human; settings: for MMS: Ratios of IC50 MCF10A: compound alone vs combination with MMS (100 μM)
Text: The 192 human DNA ligase inhibitors were screened in parallel for effects on proliferation and the ability to potentiate the effects of several DNA damaging agents using two cell human lines, a colon cancer line HCT116 and a normal breast epithelial cell line MCF10A using a Biomek FX Laboratory Automation Workstation as described (23). The DNA damaging agents used, methyl methanesulfonate (MMS), camptothecin, cis-platinum, 3 aminobenzamide and ionizing radiation, are representatives of classes of agents used to treat cancer. Briefly, HCT116 and MCF10A cells were plated in 96 well plates such that the cultures were about 80% confluent after 5 days incubation. Compounds were added to the cultures at either 15 μM or 50 μM 1 day after plating. After incubation for 3 days, cell lysed in a solution containing 1.2% Igepal CA-630 and SYBR green that stains DNA (1:1000, Molecular Probes, Eugene, Oreg.). Subsequently, fluorescence was measured per well. The studies with DNA damaging agents were performed as follows. […] Cultures were incubated for 3 days and then treated as above.

HCT116 and MCF10A cells [3] = test: Screen for potentiation of DNA damaging agents, cell line not stated with the result; assay type: cell-based, human; settings: 50 μM
Text: (§1) The 192 human DNA ligase inhibitors were screened in parallel for effects on proliferation and the ability to potentiate the effects of several DNA damaging agents using two cell human lines, a colon cancer line HCT116 and a normal breast epithelial cell line MCF10A using a Biomek FX Laboratory Automation Workstation as described (23). The DNA damaging agents used, methyl methanesulfonate (MMS), camptothecin, cis-platinum, 3 aminobenzamide and ionizing radiation, are representatives of classes of agents used to treat cancer. Briefly, HCT116 and MCF10A cells were plated in 96 well plates such that the cultures were about 80% confluent after 5 days incubation. Compounds were added to the cultures at either 15 μM or 50 μM 1 day after plating. After incubation for 3 days, cell lysed in a solution containing 1.2% Igepal CA-630 and SYBR green that stains DNA (1:1000, Molecular Probes, Eugene, Oreg.). Subsequently, fluorescence was measured per well. The studies with DNA damaging agents were performed as follows. […] For ionizing radiation, cells were pre-incubated with the compounds at 50 μM for 1 hour prior to exposure to 2 gray of ionizing radiation. Cultures were incubated for 3 days and then treated as above.

human DNA ligase IV = human DNA ligase IV (Homo sapiens, UniProt P49917); test: High-throughput fluorescence-based DNA joining (ligation) assay; assay type: biochemical
In short: (§2)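 Ligation joins an AF488-labelled and a BHQ1-labelled oligonucleotide. After denaturation and renaturation with a 20-fold excess of unlabelled competitor strand, the product forms a quenched hairpin, so joining is read as loss of 518 nm fluorescence. Ligase III used a nicked duplex; ligase IV used two duplexes with short complementary single-strand ends.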

human DNA ligase III = biological target: T1, human DNA ligase III (Homo sapiens, UniProt P49916); test: as above; assay type: biochemical
T1 sequence (P49916 1-862 isoform P49916-4): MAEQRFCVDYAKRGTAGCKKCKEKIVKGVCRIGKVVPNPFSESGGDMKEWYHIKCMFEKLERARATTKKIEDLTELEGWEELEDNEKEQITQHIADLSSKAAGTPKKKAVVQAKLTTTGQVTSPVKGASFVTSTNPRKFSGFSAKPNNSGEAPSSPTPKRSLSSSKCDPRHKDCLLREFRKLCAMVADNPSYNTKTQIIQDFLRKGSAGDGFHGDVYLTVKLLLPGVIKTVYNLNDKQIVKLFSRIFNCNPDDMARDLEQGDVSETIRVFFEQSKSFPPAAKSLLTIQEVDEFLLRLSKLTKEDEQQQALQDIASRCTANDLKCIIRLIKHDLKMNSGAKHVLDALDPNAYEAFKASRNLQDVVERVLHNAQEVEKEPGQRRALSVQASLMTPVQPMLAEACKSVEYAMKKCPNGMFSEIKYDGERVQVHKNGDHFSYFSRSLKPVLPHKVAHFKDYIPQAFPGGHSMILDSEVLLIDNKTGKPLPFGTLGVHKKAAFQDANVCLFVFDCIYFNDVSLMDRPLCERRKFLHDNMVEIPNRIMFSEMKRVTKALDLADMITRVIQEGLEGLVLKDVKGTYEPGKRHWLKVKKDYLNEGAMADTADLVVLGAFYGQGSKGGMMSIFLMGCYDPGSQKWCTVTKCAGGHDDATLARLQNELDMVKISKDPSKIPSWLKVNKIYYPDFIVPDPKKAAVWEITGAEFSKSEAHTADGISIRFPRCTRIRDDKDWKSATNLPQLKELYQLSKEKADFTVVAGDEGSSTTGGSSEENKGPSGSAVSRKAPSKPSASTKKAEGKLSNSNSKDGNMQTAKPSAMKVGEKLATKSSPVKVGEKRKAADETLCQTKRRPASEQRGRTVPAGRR
In short: as §2

HCT116 cells [4] = test: Screen for potentiation of DNA damaging agents (MMS, camptothecin, cis-platinum, 3 aminobenzamide, ionizing radiation); assay type: cell-based, human
Text: as §1

MCF10A cells [5] = test: MTT cell growth assay; assay type: cell-based, human; settings: Homo sapiens, MCF-10A
Experimental: (§3) The activity of hits from the initial screen was further validated using the MTT assay. Briefly, MCF10A and HCT116 cells were seeded in 96 well plates at 300 and 1200 cells per well, respectively, and allowed to adhere overnight. The following day, serial dilutions of compounds in media were added to the cells in a final volume 200 μl. After incubation for 5 days, MTT reagent (3-(4,5-dimthylthiazol-2-yl)-2,5-diphenyltatrazolium) was added and incubation was continued for 4 h. Formazan crystals generated by reduction of the MTT reagent in mitochondria were solubilized with isopropanol prior to the measurement of absorbance at 560 nm wavelength in a plate reader.
To extend the results of the […] cell culture screening assay, a subset of compounds were tested in larger cultures. Different concentrations of Compounds 67 and 151 were added to asynchronous subconfluent populations of HCT116 and MCF10A cells. Asynchronous subconfluent populations of HCT116 and MCF10A cells were pre-treated with different concentrations of compound 64 prior to the addition of 3 aminobenzamide (2 mM) MMS (100 μM) or cis-platinum (1 μM). After incubation for 5 days, cell growth was measured by the MTT assay (16).

HCT116 cells [6] = test: MTT cell growth assay; assay type: cell-based, human
Experimental: as §3
After incubation for 5 days, cell growth was measured by the MTT assay (16).

hLigI = biological target: T2, hLigI (Homo sapiens, UniProt P18858); test: High-throughput fluorescence-based DNA joining (ligation) assay; assay type: biochemical
T2 construct: made in house
In short: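 Nicked DNA substrate (10 pmol) was incubated with 0.25 pmol hLigI, with or without 100 μmol/L test compound, in duplicate. Afterwards the DNA was denatured and renatured with a 20-fold excess of unmodified oligonucleotide. Ligation forms an AF488/BHQ1 hairpin, read as reduced fluorescence at 518 nm.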

hLigIV/XRCC4 = hLigIV/XRCC4 (Homo sapiens, UniProt P49917); test: Radioactive gel-based DNA ligation assay; assay type: biochemical; parameters: concentration or dose not given beside the values
T4 DNA ligase = biological target: T3, T4 DNA ligase (Enterobacteria phage T4, UniProt P00970); test: High-throughput fluorescence-based DNA joining assay, non-specific inhibitor control; assay type: biochemical, bacteriophage T4
T3 construct: purchased NEB
T3 sequence (P00970 1-487): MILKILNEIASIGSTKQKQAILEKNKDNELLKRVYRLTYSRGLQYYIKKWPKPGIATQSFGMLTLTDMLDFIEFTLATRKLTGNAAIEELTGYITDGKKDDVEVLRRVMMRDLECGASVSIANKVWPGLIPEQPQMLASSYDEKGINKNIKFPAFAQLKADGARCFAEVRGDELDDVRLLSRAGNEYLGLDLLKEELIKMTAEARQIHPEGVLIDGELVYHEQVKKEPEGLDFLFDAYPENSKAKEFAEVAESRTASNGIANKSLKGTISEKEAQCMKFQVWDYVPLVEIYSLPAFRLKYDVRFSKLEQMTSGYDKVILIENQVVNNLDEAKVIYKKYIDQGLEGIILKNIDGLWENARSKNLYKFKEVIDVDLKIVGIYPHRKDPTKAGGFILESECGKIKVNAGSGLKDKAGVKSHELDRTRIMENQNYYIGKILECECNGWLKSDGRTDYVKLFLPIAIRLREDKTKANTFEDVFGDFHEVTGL
Experimental: Candidate ligase inhibitors identified by CADD were assayed for their ability to inhibit hLigI and T4 DNA ligase using a high-throughput, fluorescence energy transfer-based DNA joining assay (22). Duplicate reactions (30 μL) containing 10 pmol of nicked DNA substrate and either 0.25 pmol of hLigI or 10 units of T4 DNA ligase were incubated in the presence or absence of 100 μmol/L of the putative inhibitor. DNA binding by the candidate DNA ligase inhibitors was measured by displacement of ethidium bromide from DNA as previously described (30).
In addition, to identify compounds that may be non-specific inhibitors of DNA joining, the 192 compounds were also assayed for their ability to inhibit bacteriophage T4 DNA ligase, an enzyme that utilizes the same reaction mechanism as hLigI, has similar adenylation and OB-fold domains but lacks a DBD domain. (6) Although this is also an ATP-dependent DNA ligase, it lacks the domain containing the binding pocket targeted by the in silico screen. Compounds that inhibited T4 DNA ligase were eliminated as non-specific inhibitors that most likely bind to the DNA.

[7] = read-out: % of inhibition @ 100 μM (Helen's data) hLigIII
[8] = cell growth, compound alone, read-out: IC50 (μM) MCF10A
[9] = sections 'high concentrations (~50 μM)' and 'active in vitro that decreased cell growth', same figures given in μM elsewhere in Table 6, read-out: IC50 MCF10A (head without unit)
[10] = 100 μM, read-out: % of inhibition @ 100 μM (Helen's data) hLigI
[11] = 100 μM, read-out: % of inhibition @ 100 μM (Helen's data) hLigIV

human DNA ligase IV, sequence (P49917 whole entry): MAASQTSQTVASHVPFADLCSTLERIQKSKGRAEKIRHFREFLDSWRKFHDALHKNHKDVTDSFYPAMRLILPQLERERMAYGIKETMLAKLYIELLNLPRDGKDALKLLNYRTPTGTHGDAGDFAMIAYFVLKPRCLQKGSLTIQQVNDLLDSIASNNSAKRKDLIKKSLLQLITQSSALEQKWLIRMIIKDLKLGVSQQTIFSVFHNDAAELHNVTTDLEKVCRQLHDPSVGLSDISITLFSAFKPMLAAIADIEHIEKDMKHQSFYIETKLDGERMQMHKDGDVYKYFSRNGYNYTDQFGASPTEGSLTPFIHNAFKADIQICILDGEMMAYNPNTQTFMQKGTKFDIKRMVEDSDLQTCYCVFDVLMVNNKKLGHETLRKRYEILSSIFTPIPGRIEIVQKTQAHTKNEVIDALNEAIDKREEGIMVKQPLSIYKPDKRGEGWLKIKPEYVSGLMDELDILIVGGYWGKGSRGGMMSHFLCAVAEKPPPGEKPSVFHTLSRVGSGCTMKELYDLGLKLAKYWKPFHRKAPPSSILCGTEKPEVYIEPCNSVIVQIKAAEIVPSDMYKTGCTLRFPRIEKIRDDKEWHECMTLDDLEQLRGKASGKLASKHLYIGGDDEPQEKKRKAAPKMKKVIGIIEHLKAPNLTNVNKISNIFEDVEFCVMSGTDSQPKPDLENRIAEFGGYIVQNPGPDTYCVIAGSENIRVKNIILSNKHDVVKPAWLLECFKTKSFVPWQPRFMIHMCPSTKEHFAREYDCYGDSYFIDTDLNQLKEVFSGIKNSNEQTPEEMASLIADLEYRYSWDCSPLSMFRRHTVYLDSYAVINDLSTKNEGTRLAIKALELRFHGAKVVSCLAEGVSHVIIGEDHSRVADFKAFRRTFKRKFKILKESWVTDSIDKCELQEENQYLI
human DNA ligase IV, sequence (Q13426 whole entry partner): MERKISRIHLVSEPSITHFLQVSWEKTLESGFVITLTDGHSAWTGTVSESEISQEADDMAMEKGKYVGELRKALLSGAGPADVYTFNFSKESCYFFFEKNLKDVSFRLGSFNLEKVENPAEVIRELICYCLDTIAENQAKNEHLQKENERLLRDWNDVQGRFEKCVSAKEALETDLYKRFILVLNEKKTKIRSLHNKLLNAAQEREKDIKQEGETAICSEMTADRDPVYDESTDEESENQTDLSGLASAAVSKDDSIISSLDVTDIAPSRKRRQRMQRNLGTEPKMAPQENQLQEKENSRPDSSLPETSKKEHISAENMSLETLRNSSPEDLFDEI
T2 sequence (P18858 whole entry): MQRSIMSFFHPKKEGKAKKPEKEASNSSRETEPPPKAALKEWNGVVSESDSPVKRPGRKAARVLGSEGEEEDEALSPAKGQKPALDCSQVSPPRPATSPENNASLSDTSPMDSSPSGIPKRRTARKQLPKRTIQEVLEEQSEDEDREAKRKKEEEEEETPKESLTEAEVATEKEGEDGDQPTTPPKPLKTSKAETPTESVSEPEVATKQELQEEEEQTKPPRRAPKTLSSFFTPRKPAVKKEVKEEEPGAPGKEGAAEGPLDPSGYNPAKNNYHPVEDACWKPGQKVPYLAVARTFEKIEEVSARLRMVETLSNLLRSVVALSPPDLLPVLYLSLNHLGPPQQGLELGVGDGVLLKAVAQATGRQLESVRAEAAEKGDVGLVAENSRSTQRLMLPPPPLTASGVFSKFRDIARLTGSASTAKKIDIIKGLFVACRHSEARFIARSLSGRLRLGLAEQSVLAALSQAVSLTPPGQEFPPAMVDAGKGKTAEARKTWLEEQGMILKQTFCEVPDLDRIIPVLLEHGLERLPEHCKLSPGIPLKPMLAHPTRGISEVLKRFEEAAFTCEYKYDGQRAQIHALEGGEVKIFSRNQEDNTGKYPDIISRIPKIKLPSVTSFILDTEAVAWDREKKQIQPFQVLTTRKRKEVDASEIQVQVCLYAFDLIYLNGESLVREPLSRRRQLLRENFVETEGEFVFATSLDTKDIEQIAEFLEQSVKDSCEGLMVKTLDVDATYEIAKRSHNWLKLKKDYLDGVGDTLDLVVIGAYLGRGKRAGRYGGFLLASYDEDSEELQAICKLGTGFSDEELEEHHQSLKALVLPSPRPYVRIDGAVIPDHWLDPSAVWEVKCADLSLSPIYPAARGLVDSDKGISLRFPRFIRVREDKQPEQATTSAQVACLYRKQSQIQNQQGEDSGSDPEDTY
hLigIV/XRCC4, sequence (P49917 whole entry): as the sequence (P49917 whole entry) above
hLigIV/XRCC4, sequence (Q13426 whole entry partner): as the sequence (Q13426 whole entry partner) above

SMILES	IC50 (HCT116 and MCF10A cells [1])	MMS: Ratios of IC50 MCF10A (MCF10A cells [2]; 1 = no sensitization)	inhibition at 100 µM (human DNA ligase III; [7])	IC50 (MCF10A cells [5]; [8])	IC50 (MCF10A cells [5]; [9])	inhibition at 100 µM (hLigI; [10])	inhibition at 100 µM (human DNA ligase IV; [11])	% of inhibition @ 100 μM (Helen's data) hLigIV (human DNA ligase IV; 100 μM)	also measured
C=CCN1C(=O)/C(=N\NC(=O)c2ccccc2O)c2ccccc21 [Compound 78]	< 20 µM	1.5	> 20%	7.5 µM	7.5 µM	–	–	–	IC50 ratios of non- and 3-AB treated cells MCF10A (MCF10A cells [2]; compound alone vs combination with 3-AB (2 mM), 1 = no sensitization): 1; enhancement of the cytostatic effect of MMS (HCT116 and MCF10A cells [3]; MMS 100 μM): enhance the cytostatic effect of MMS; inhibition at 100 µM (human DNA ligase IV; read-out: % of inhibition @ 100 μM (Helen's data) hLigIV): < 20%; MMS: Ratios of IC50 HCT116 (HCT116 cells [4]; compound alone vs combination with MMS (100 μM), 1 = no sensitization): 1; IC50 (HCT116 cells [6]; Homo sapiens, HCT-116, cell growth, compound alone, read-out: IC50 (μM) HCT116): 10 µM; IC50 (HCT116 cells [6]; Homo sapiens, HCT-116, sections 'high concentrations (~50 μM)' and 'active in vitro that decreased cell growth', same figures given in μM elsewhere in Table 6, read-out: IC50 HCT116 (head without unit)): 10 µM
O=C(O)c1ccccc1Nc1ccc([N+](=O)[O-])c2nonc12 [Compound 16]	< 20 µM	1	< 20%	6 µM	–	< 20%	< 20%	–	–
CCc1ccc(NS(=O)(=O)c2ccc(Cl)s2)cc1 [Compound 105]	–	–	–	–	–	–	–	NI (NI- no inhibition)	% of inhibition @ 100 μM (Helen's data) hLigI (hLigI; 100 μM): NI (NI- no inhibition); Radiosensitizers: IC50 ratios MCF10A (MCF10A cells [2]; ionizing radiation): 1; radiosensitizer activity (HCT116 and MCF10A cells [3]; 2 gray of ionizing radiation): act as radiosensitizers; % of inhibition @ 100 μM (Helen's data) hLigIII (human DNA ligase III; 100 μM): NI (NI- no inhibition); Radiosensitizers: IC50 ratios HCT116 (HCT116 cells [4]; ionizing radiation): 1.3; IC50 (HCT116 cells [6]; cell growth, compound alone, read-out: IC50 (μM) HCT116): ~50 µM
Nn1cnnc1N/N=C/c1cc([N+](=O)[O-])c(Cl)cc1Cl [Compound 195]	< 20 µM	1.2	24%	3 µM	3 µM	26%	< 20%	–	–
CCn1nc(N)c2c(O)nc(O)cc21 [Compound 93]	–	–	–	–	–	–	–	–	% activity Inhibition hLigIV gel (hLigIV/XRCC4): Ø; % activity Inhibition hLigI 100 uM (hLigI; 100 uM): Ø; inhibition at 100 µM (hLigI; 100 μM, read-out: In vitro % inhib hLigI 100): 0%; inhibition at 100 µM (human DNA ligase IV; 100 μM, read-out: In vitro % inhib hLigIV 100): 37 ± 6%; inhibition at 100 µM (human DNA ligase IV; 100 uM, Ø not defined (0 in Table 5A), read-out: % activity Inhibition hLigIV 100 uM): 37.6 ± 6.1%; inhibition of human DNA ligase IV, in words (human DNA ligase IV; in vitro screen): specific for DNA ligase IV; inhibition at 100 µM (human DNA ligase III; 100 μM, read-out: In vitro % inhib hLigIII 100): 0%; % activity Inhibition hLigIII 100 uM (human DNA ligase III; 100 uM, Ø not defined (0 in Table 5A)): Ø; % activity Inhibition LigT4 100 uM (T4 DNA ligase; 100 uM): Ø; inhibition at 100 µM (T4 DNA ligase; 100 μM, read-out: In vitro % inhib T4 100): 0%
O=C(Nc1nc2ccccc2s1)c1ccc(Cl)c([N+](=O)[O-])c1 [Compound 165]	< 20 µM	1	< 20%	3 µM	3 µM	< 20%	37.2%	37%	–
